As usually defined, the IC50 is the concentration that gives 50% inhibition.

The test concerns the target T1, recombinant human MetAP2 (Homo sapiens, UniProt P50579).
T1 construct: Flag; made in house; host or cells: Sf9 insect cells
The test can be described thus: Inhibition of recombinant human MetAP2 activity (MAS substrate, amino acid oxidase/Amplex red fluorescence). The class given is biochemical. The conditions noted are these: manganese enzyme, 30 minutes at 25° C., pH 7.5, 0.75 mM MAS substrate, 1% DMSO; read-out: Activity (MetAP2 IC50 class). As for the experimental part: Compounds are tested for their capacity to inhibit recombinant human MetAP2 activity using the following assay.
Human recombinant Flag-MetAP2 expressed in Sf9 cells followed by affinity purification and EDTA treatment to remove endogenous active site cation was dialysed against MnCl2 to produce the manganese enzyme used in the assay. The assay was carried out for 30 minutes at 25° C. in 50 mM HEPES buffer containing 100 mM NaCl, pH 7.5 the presence of 0.75 mM Methionine-Alanine-Serine (MAS) substrate and 50 μg/mL amino acid oxidase using a dilution of purified MetAP2 giving approximately 50,000 RFU control activity. Cleavage of the substrate by MetAP2 and oxidation of free methionine by amino acid oxidase was detected and quantified using fluorescence generated by Amplex red (10-acetyl-3,7-dihydroxyphenoxazine) in combination with horseradish peroxidase which detects H2O2 released during the oxidation step. The fluorescent signal was detected using a multiwell fluorimeter. Compounds were diluted in DMSO prior to addition to assay buffer, the final DMSO concentration in the assay being 1%.
The IC50 is defined as the concentration at which a given compound achieves 50% inhibition of control. IC50 values are calculated using the XLfit software package (version 2.0.5).

T1 sequence (P50579 whole entry): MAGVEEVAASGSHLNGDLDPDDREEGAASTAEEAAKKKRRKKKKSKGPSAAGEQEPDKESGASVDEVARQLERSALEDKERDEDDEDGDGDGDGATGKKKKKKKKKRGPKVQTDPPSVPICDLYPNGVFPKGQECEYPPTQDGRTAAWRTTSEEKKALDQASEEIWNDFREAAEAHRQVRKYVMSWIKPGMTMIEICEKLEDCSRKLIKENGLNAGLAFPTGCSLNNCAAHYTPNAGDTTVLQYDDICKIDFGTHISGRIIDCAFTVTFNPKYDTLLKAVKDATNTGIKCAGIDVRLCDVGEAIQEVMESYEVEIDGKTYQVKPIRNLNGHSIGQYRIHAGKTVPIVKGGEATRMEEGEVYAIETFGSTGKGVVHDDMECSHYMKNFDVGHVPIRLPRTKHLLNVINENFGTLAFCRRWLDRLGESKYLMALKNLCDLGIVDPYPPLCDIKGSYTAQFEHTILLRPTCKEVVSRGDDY

Consider `COc1cccc(NS(=O)(=O)c2ccccc2)c1-c1nnn[nH]1` [N-[3-Methoxy-2-(1H-tetrazol-5-yl)-phenyl]-benzenesulfonamide], for which the IC50 was less than 1 µM.
Under `O=S(=O)(Nc1cccc(C2CC2)c1-c1nnn[nH]1)c1ccccc1` [N-[3-Cyclopropyl-2-(1H-tetrazol-5-yl)-phenyl]-benzenesulfonamide] stands less than 1 µM; under `O=S(=O)(Nc1ccc2c(c1-c1nnn[nH]1)CCCC2)c1ccccc1` [N-[1-(1H-Tetrazol-5-yl)-5,6,7,8-tetrahydronaphthalen-2-yl]-benzenesulfonamide], more than 1 µM; under `Cc1cccc(NS(=O)(=O)c2ccccc2)c1-c1nnn[nH]1` [N-[3-Methyl-2-(1H-tetrazol-5-yl)-phenyl]-benzenesulfonamide], more than 1 µM.
Under `O=S(=O)(Nc1cccc(Br)c1-c1nnn[nH]1)c1ccccc1` [N-[3-Bromo-2-(1H-tetrazol-5-yl)-phenyl]-benzenesulfonamide] stands more than 1 µM.

The values are drawn from patent US9321740B2, “Tetrazole compounds and methods of making and using same” (Zafgen, Inc., priority 2011, dated 2016).
